Data as given in patent US20140315789A1, “ANTIMICROBIAL PEPTIDES AND USES THEREOF” (NEWSOUTH INNOVATIONS PTY LIMITED, priority 2011, published 2014).

Legend:
[1] = system: Pseudomonas aeruginosa PA01; experiment: Bacterial adhesion to peptide-coated glass surfaces, LIVE/DEAD fluorescence microscopy; format: cell-based; settings: P. aeruginosa; for total surface coverage of bacteria / proportion of non-viable cells to total bacteria present / reduction of total surface coverage compared to BLK: peptide attached to maleimide-functionalised glass; for total surface coverage of bacteria: 48 hours incubation, BLK over 21.7%; for proportion of non-viable cells to total bacteria present: BLK 5.8%; for reduction of total surface coverage compared to BLK: versus blank glass
Procedure: (§1) Bacterial strains (Staphylococcus aureus strain 38 or Pseudomonas aeruginosa PA01) were streaked onto Chocolate agar (Oxoid, UK) and incubated overnight at 37° C. A single colony was cultured in 10 ml of tryptone soya broth (TSB) (Oxoid, UK) overnight to log phase at 37° C. Optical density of the resulting culture was adjusted to OD660 of 0.1 (corresponding to 1×10^8 cfu/ml) in TSB media (0.25% w/v glucose). Bacterial numbers were confirmed by a retrospective viable count.
(§2) Glass surfaces were placed in 4 ml of the above culture and incubated at 37° C. with shaking at 60 rpm for 24 hours, then the media was replaced with fresh TSB (4 ml) and incubated for a further 24 hours (total of 48 hours). The samples were then washed with PBS before examination by fluorescent staining
(§3) Glass samples with adherent bacteria prepared as described above were stained with LIVE/DEAD BacLight Bacterial Viability Kit (Molecular Probes, Inc., OR, USA) according to the manufacturer's directions as described by others for the analysis of biofilms at surfaces (Kirov, Barraud). Microscopic observation and image acquisition was performed with Olympus FV1000 Confocal Inverted Microscope. Images obtained from 10 representative areas on each of triplicate samples for each surface were analysed using Image software (Abramoff et al.); Biophotonics International. 2004, 11(7), pp 36-42 and Rasband et al. Image). Bethesda Md., USA, U.S. National Institutes of Health, 1997 ? 2011, available from http://imagej.hih.gov.au/ij/). The image analysis results were measured as the average area of live cells and the average area of dead cells per field of view and are reported as the average percentage coverage. Prior to comparing the groups, equality of variances was tested using Levene's test. Unequal variances were adjusted by transforming the data using square root transformation. Differences between the groups were analysed using linear mixed model ANOVA, which adjusts the correlation due to repeated observations. Post hoc multiple comparisons were done using Dunnett T3 comparison. Statistical significance was set at 5%.
(§4) The adhesion of Pseudomonas aeruginosa and Staphylococcus aureus to the modified surfaces was evaluated using fluorescence microscopy. The images obtained were analysed using ImageJ software (Abramoff et al. J. Biophotonics International. 2004, 11(7), pp 36-42 and Rasband et al. ImageJ. Bethesda Md., USA, U.S. National Institutes of Health, 1997-2011, available from http://imagej.hih.gov.au/ij/). The areas of the surfaces covered by bacteria and the relative proportions of bacteria with intact and damaged membranes for each surface were examined by image analysis and the results are shown in FIG. 4.

[2] = system: Staphylococcus aureus strain 38; experiment: as above; format: cell-based; settings: S. aureus; for total surface coverage of bacteria / proportion of non-viable bacteria / reduction in total bacteria compared with BLK: peptide attached to maleimide-functionalised glass; for total surface coverage of bacteria: 48 hours incubation, controls more than 16%; for proportion of non-viable bacteria: BLK 2.2%; for reduction in total bacteria compared with BLK: versus blank glass
Procedure: as §1, §2, §3, §4

[3] = surface-attached, fold versus CysC

Sequence	total surface coverage of bacteria [1] [%]	proportion of non-viable cells to total bacteria present [1]	reduction of total surface coverage compared to BLK [1] [%]	total surface coverage of bacteria [2] [%]	proportion of non-viable bacteria [2]	reduction in total bacteria compared with BLK [2] [%]	effectiveness in reducing total surface coverage relative to CysC [1, 3]	nonviable cells (stained red) relative to CysC [1, 3] [times]	effectiveness in reducing total surface coverage relative to CysC [2, 3]	nonviable cells (stained red) relative to CysC [2, 3]
TLISWIKNKRKQCRPRVSRRRRRRGGRRRR [Cys13, melimine wherein an extra cysteine residue has been added to position 13]	7.1	30.1%	67.4	6.3	9.8%	64.1	–	–	–	–
TLISWIKNKRKQRPRVSRRRRRRGGRRRRC [CysC, melimine wherein an extra cysteine residue has been added to the C-terminus]	11.3	not statistically different to the controls	47.7	11.8	not different to the control	–	–	–	–	–
CTLISWIKNKRKQRPRVSRRRRRRGGRRRR [CysN, melimine wherein an extra cysteine residue has been added to the N-terminus]	6.6	40.6%	69.4	3.0	13.0%	82.7	approximately 2 times	~3	approximately 4 times	approximately 8 times
